Literature values, collected in patent US20260315441A1, “FORMULATIONS OF PENICILLIN AND METHODS FOR STABILIZING PENICILLIN” (VETERINARY PHARMACY CORPORATION, priority 2023, published 2026).
Like-named read-outs stand apart in the source and are kept apart here.

pH of highest stability (aqueous solution)	degradation of penicillin G (at 5° C.) [%/hour]	degradation of penicillin G (at 37° C.) [%/hour]	minimum degradation pH point (aqueous solution) [pH]	stability outside of the pH range of 5-8 (pH outside 5-8)	Structure (SMILES)
5-8 pH	1.92	3.29			CC1(C)S[C@@H]2[C@H](NC(=O)Cc3ccccc3)C(=O)N2[C@H]1C(=O)O [Penicillin G, benzylpenicillin]
			6.5	very unstable	CC1(C)S[C@@H]2[C@H](NC(=O)Cc3ccccc3)C(=O)N2[C@H]1C(=O)O [Penicillin]
